Results: ChEMBL document CHEMBL1133928, “Design and synthesis of glycolic and mandelic acid derivatives as factor Xa inhibitors” (Bioorg Med Chem Lett, 2001)

Assays:
Coagulation factor X = Coagulation factor X (Homo sapiens, UniProt P00742); assay: In vitro inhibitory activity against coagulation factor X
Serine protease 1 = Serine protease 1 (Homo sapiens, UniProt P07477); assay: In vitro inhibitory activity against trypsin
Prothrombin = Prothrombin (Homo sapiens, UniProt P00734); assay: In vitro inhibitory activity against thrombin
[1] = Oral bioavailability in rat; format: ADME, organism-based; conditions: in vivo
Oryctolagus cuniculus [2] = assay: Antithrombotic effect (Inhibition of thrombus formation) in a rabbit deep vein thrombosis model at 0.132 uM plasma concentration following iv administration; format: functional
Oryctolagus cuniculus [3] = assay: Antithrombotic effect (Inhibition of thrombus formation) in a rabbit deep vein thrombosis model at 1.1 uM plasma concentration following iv administration; format: functional

Chain of Serine protease 1 (P07477 whole entry): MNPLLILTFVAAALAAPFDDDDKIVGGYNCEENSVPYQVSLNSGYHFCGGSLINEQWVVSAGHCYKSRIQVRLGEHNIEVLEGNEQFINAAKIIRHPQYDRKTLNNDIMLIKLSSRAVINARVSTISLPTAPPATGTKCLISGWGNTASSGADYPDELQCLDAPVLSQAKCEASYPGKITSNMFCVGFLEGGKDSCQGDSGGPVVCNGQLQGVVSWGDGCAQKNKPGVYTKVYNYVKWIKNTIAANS
Chain of Coagulation factor X (P00742 41-179 limits assumed): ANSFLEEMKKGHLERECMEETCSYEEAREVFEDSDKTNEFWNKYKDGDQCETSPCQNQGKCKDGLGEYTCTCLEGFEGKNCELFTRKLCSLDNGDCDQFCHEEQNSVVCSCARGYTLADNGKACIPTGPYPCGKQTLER
Chain of Coagulation factor X (P00742 235-488 limits assumed): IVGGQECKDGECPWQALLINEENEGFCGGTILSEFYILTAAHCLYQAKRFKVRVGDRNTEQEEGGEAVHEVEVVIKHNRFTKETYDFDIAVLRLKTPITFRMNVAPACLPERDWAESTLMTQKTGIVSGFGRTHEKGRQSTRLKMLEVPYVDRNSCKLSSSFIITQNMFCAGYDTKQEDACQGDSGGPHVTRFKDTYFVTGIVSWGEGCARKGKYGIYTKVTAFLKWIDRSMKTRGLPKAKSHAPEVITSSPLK

IC50 (Coagulation factor X) | IC50 (Serine protease 1) | IC50 (Prothrombin) | bioavailability [1] | Structure (SMILES) | Inhibition (Oryctolagus cuniculus [2]) | Inhibition (Oryctolagus cuniculus [3])
14 nM | 5330 nM |  |  | N=C(N)c1cccc(OC(C(=O)Nc2ccc(-n3cnc(Cl)c3Cl)cc2)c2ccccc2)c1 (centres undefined) |  | 
6.4 nM | 2570 nM | > 10000 nM |  | N=C(N)c1cccc(OCCC(=O)Nc2ccc(-c3ccccc3S(N)(=O)=O)cc2)c1 |  | 
1120 nM | > 10000 nM | > 10000 nM |  | N=C(N)c1cccc(OCC(=O)Nc2ccc(C(=O)N3CCOCC3)cc2)c1 |  | 
0.55 nM | 1250 nM | > 10000 nM | 5% | N=C(N)c1cccc(OC(C(=O)Nc2ccc(-c3ccccc3S(N)(=O)=O)cc2)c2ccccc2)c1 (centres undefined) | 56% | 
6.3 nM | 875 nM | > 10000 nM |  | N=C(N)c1cccc(OCC(=O)Nc2ccc(C(=O)N3CC=CC3)cc2)c1 |  | 
227 nM | 2050 nM | > 10000 nM |  | N=C(N)c1cccc(OCC(=O)Nc2ccc(C(=O)N3CCC3)cc2)c1 |  | 
 | 9820 nM | > 10000 nM |  | N=C(N)c1cccc(OC(C(=O)Nc2ccc(-c3ccccc3S(N)(=O)=O)cc2F)c2ccccc2)c1 (centres undefined) |  | 
0.7 nM | 283 nM | > 10000 nM |  | N=C(N)c1ccc(O)c(OCC(=O)Nc2ccc(C(=O)N3CCCC3)cc2)c1 |  | 
0.99 nM | 521 nM | > 10000 nM |  | N=C(N)c1cccc(OC(C(=O)Nc2ccc(C(=O)N3CCCC3)cc2Br)c2ccccc2)c1 (centres undefined) |  | 
0.18 nM | 174 nM |  | 5% | N=C(N)c1cccc(OC(C(=O)Nc2ccc(C(=O)N3CCCC3)cc2)c2ccccc2)c1 (centres undefined) |  | 81%
66 nM | 2700 nM | > 10000 nM |  | N=C(N)c1cccc(OCC(=O)Nc2ccc(C(=O)N3CCCC3)cc2)c1 |  | 
2.2 nM | 2290 nM | > 10000 nM |  | N=C(N)c1ccc(O)c(OCC(=O)Nc2ccc(-c3ccccc3S(N)(=O)=O)cc2)c1 |  | 
1190 nM | > 10000 nM | > 10000 nM |  | N=C(N)c1cccc(OCC(=O)Nc2ccc(C(=O)N3CCCCCC3)cc2)c1 |  | 
> 10000 nM | > 10000 nM | > 10000 nM |  | CN1CCN(C(=O)c2ccc(NC(=O)COc3cccc(C(=N)N)c3)cc2)CC1 |  | 
2930 nM | 6640 nM | > 10000 nM |  | CC(C)(C)OC(=O)C1CCCN1C(=O)c1ccc(NC(=O)COc2cccc(C(=N)N)c2)cc1 (centres undefined) |  | 
93 nM | 8780 nM | 4090 nM |  | N=C(N)c1cccc(OC(C(=O)Nc2cc(Cl)c(-n3cccc3)cc2Cl)c2ccccc2)c1 (centres undefined) |  | 
4.4 nM |  |  |  | N=C(N)c1cccc(OC(C(=O)Nc2ccc(N3CCOCC3)c(F)c2)c2ccccc2)c1 (centres undefined) |  | 
> 10000 nM | > 10000 nM | > 10000 nM |  | N=C(N)c1cccc(OCC(=O)Nc2ccc(C(=O)N3CCCC3C(=O)O)cc2)c1 (centres undefined) |  | 
170 nM | > 10000 nM | > 10000 nM |  | N=C(N)c1cccc(OC(C(=O)Nc2ccc(-n3ccc(C(F)(F)F)n3)cc2)c2ccccc2)c1 (centres undefined) |  | 
3.2 nM | 4000 nM | 8640 nM |  | N=C(N)c1cccc(OC(C(=O)Nc2ccc(-c3ccccc3S(N)(=O)=O)cc2Br)c2ccccc2)c1 (centres undefined) |  | 
21 nM | 3370 nM | > 10000 nM |  | N=C(N)c1cccc(OCC(=O)Nc2ccc(-c3ccccc3S(N)(=O)=O)cc2)c1 |  | 
 | > 10000 nM | > 10000 nM |  | N=C(N)c1cccc(OCC(=O)Nc2ccc(C(=O)N3CCCCC3)cc2)c1 |  | 
